Source: patent publication US4302578A, “Cephalosporin antibiotics” (priority 1971, dated 1981)
Entries after “also recorded” stand apart in the source; their conditions may differ. Counter-ions that a name gives are not always drawn. Like-named read-outs stand apart in the source and are kept apart here.

Columns and labels:
[1] = toxicity for uninfected mice; conditions: mouse, in vivo
From the text: (§1) The method employed in this characterization is as follows: Female white Swiss mice, average weight 20-23 grams, were infected intraperitoneally with 3-20 times the number of organisms calculated to be lethal for 50% of the infected control animals (3-20 LD50 doses). At the time of infection and again six hours later, therapy was given by the designated route. Controls of the virulence of the culture and the toxicity of the antibiotic for uninfected mice were included in the tests. Seven days after infection the test was considered complete and the amount of the antibiotic (I) that would be required to protect 50% of the infected and treated animals was calculated by the method of Knudsen and Curtis; J. Amer. Stat. Assoc. Vol. 42: page 282 (1947).

cephalosporinases = test: resistance to cephalosporinases / penicillinase; type: biochemical
[2] = system: gram-negative and gram-positive bacteria; test: in vitro antibacterial activity (summary statements); type: cell-based
certain microorganisms = test: resistance to bacterial inactivation / enzymatic degradation (summary statements); type: biochemical
From the text: Bacterial Inactivation With 810A: An in vitro study was designed to determine the resistance of Antibiotic 810A, to bacterial inactivation as compared with cephalosporin C, cephaloridine and cephalothin.

[3] = system: gram-negative and gram-positive infections; test: in vivo protection against infection (summary statements); set-up: species or system mice; conditions: for protection against infections, oral: given orally; for in vivo protection / activity: mouse; for protection: 4000 mg. × dose, subcutaneous, infection not marked
From the text: as §1
The method employed in these studies is the same as described above with regard to the in vivo characterization of 810A.

Vibrio percolans MB-1272 = test: disc-plate bioassay; conditions: for zone of inhibition at 100 µg/mL / zone of inhibition at 5 µg/mL: Comamonas terrigena
[4] = system: Aerobacter cloacae (MB-2646); test: bacterial inactivation, cell-free extract; type: biochemical
Method: The ability of Antibiotic 810A and cephalosporin C to withstand the degradative effect of the culture Aerobacter cloacae (MB-2646) was also determined. This culture is gram-negative and resistant to cephalosporin C. […] The source of the inactivating substance is a 1:160 dilution of the filtrate of an 18 hour 37° C. shake culture of Aerobacter cloacae MB-2646 in nutrient broth containing 0.2% yeast extract. Table XIV, infra, indicates the percent inactivation of Antibiotic 810A, cephalothin, cephaloridine and cephalosporin C on Vibrio percolans (MB-1272) via this method:
Using the same assay procedure as described above, Table XV, infra, indicates the relative resistance of Antibiotic 810A to enzymatic inactivation by Aerobacter cloacae. The starting concentration is 250 μg./ml. Results are expressed in μg./ml.

Proteus morganii 356 [5] = test: mouse protection test, clinical isolate resistant to cephalosporins; type: in vivo, mice; conditions: Subcutaneous Route × 2 Doses (average of Two Trials)
From the text: as §1
Administration was by subcutaneous injection. At the completion of the test period, usually seven days after administration, the amount of product required to protect 50% of the mice (ED50) from this otherwise fatal injection was calculated:
In addition to the aforementioned in vivo trails of the product, a clinical isolate of Proteus morganii 356 which is resistant to cephalosporins and capable of degrading cephalosporin C, was employed in a mouse protection test performed in the same manner as reported above.

[6] = system: gram-negative and gram-positive bacteria; conditions: cited from earlier work
penicillinase = conditions: cited from earlier work
Proteus morganii 356 [7] = test: bacterial inactivation
Method: (§2) These cultures are: Escherichia coli 236, Proteus morganii 251, Proteus morganii 356 and Proteus mirabilis 241. […] In conducting the assay individual mixtures of the organisms and one of the antibiotic were sampled after four hours incubation and assayed for residual antibiotic activity. The procedure is the same assay method as described above against Alcaligenes faecalis MB-9 and A. viscosus MB-12.

Escherichia coli 236 = test: bacterial inactivation; conditions: four hours incubation; on B. subtilis (MB-964); 240 min
Method: as §2

Proteus mirabilis 241 = test: bacterial inactivation
Method: as §2

Proteus morganii 251 = test: bacterial inactivation
Method: as §2

[8] = system: Alcaligenes faecalis (MB-9); test: bacterial inactivation, washed bacterial cells
[9] = system: Pseudomonas stutzeri MB-1231; test: disc-plate bioassay of derivatives; type: cell-based; conditions: Stutzerimonas stutzeri, MB1231, equal concentrations, 100γ/ml (Example 71); read-out: disc zone size
From the text: (§3) Bioassay: The disc zone sizes in the following table are expressed in mm. for 100 γ/ml of antibiotic.
(§4) Bioassay: The disc zone sizes in the following table are expressed in mm. for equal concentrations of antibiotic.

Escherichia coli W-MB-60 = test: disc-plate bioassay of derivatives; type: cell-based; conditions: 100 γ/ml (Example 78)
From the text: as §3, §4

[10] = system: Salmonella gallinarum MB-1287; test: disc-plate bioassay of derivatives; type: cell-based; conditions: 100γ/ml (Example 77)
From the text: as §4

[11] = isoelectric point and pH stability; type: physicochemical; conditions: for stability, low pH: pH 1.5
[12] = urinary excretion and blood levels; type: in vivo, mice; conditions: mouse
[13] = 2 Hour Incubation, assayed on V. percolans (MB-1272) plates
[14] = four hours incubation, on B. subtilis (MB-964), 240 min

## COC(=Cc1ccc(OS(=O)(=O)O)cc1)C(=O)OCC1=C(C(=O)O)N2C(=O)[C@](NC(=O)CCC[C@@H](N)C(=O)O)(OC)[C@H]2SC1 [7β-(D-5-amino-5-carboxyvaleramido)-3-(α-methoxy-p-sulfooxycinnamoyloxymethyl)-7-methoxy-3-cephem-4-carboxylic acid]
[1]
  toxicity: low order of toxicity in mice
cephalosporinases
  resistance to cephalosporinases: greater resistance to cephalosporinases than cephalothin
[2]
  bactericidal action / development of resistance: bactericidal
Certain microorganisms
  resistance to inactivation / enzymatic degradation: more resistant to enzymatic degradation than cephalosporin C
[3]
  protection against infections, oral: protects against infections due to Proteus vulgaris
  in vivo protection / activity: when administered subcutaneously, it is effective against a variety of gram-negative and gram-positive infections

## CO[C@@]1(NC(=O)CCC[C@@H](N)C(=O)O)C(=O)N2C(C(=O)O)=C(C)CS[C@@H]21 [7β-(D-5-amino-5-carboxyvaleramido)-3-methyl-7-methoxy-3-cephem-4-carboxylic acid]
Vibrio percolans MB-1272; 50 ug/ml
  Bioactivity: Inactive at 50 ug/ml

## O=C(Cc1cccs1)N[C@@H]1C(=O)N2C(C(=O)[O-])=C(C[n+]3ccccc3)CS[C@H]12 [Cephaloridine]
[4]; aerobacter cloacae cell-free extract, 2 h
  Percent Inactivation After Incubation With Cell-Free Extract: 96%
[3]
  protection: failed to protect at 4000 mg. × dose
Proteus morganii 356 [5]
  ED50: 9,270 μg

## CC(=O)OCC1=C(C(=O)O)N2C(=O)[C@@H](NC(=O)CCC[C@@H](N)C(=O)O)[C@H]2SC1 [Cephalosporin C]
[4]; [13]
  Percent Inactivation After Incubation With Cell-Free Extract: 96%
[6]
  antibacterial activity (background, words): only moderately active
penicillinase
  resistance to / degradation by penicillinase: possesses an inherent resistance to penicillinase
Proteus morganii 356 [7]; [14]
  percent inactivation: > 99%
Escherichia coli 236
  percent inactivation: > 99%
Proteus mirabilis 241; [14]
  percent inactivation: 72%
Proteus morganii 251; [14]
  percent inactivation: > 99%
[8]; 3 Hour Incubation, assayed on V. percolans (MB-1272) plates
  Percent Inactivation After Incubation With Washed Bacterial Cells: > 99%
[8]; 3 Hours Incubation, assayed on B. subtilis (MB-964) plates
  Percent Inactivation After Incubation With Washed Bacterial Cells: > 99%

## CC(=O)OCC1=C(C(=O)O)N2C(=O)[C@@H](NC(=O)Cc3cccs3)[C@H]2SC1 [Cephalothin]
[4]; [13]
  Percent Inactivation After Incubation With Cell-Free Extract: 66%
[3]
  protection: failed to protect at 4000 mg. × dose
Proteus morganii 356 [5]
  ED50: 20,000 μg

## CO[C@@]1(NC(=O)CCC[C@@H](N)C(=O)O)C(=O)N2C(C(=O)O)=C(COC(N)=O)CS[C@@H]21 [Disodium Salt of 842A]
Vibrio percolans MB-1272; MB1272, read-out: disc zone size, 100γ/ml (Example 77)
  zone of inhibition at 100 µg/mL: > 35 mm
Vibrio percolans MB-1272; MB1272, read-out: disc zone size, 100 γ/ml (Example 78)
  zone of inhibition at 100 µg/mL: 23 mm
Vibrio percolans MB-1272; MB1272, read-out: disc zone size, Example 70, (5γ/ml) printed at end of line, head 100γ/ml
  zone of inhibition at 5 µg/mL: 18 mm
Vibrio percolans MB-1272; MB1272, read-out: disc zone size, equal concentrations, 5γ/ml (Example 71)
  zone of inhibition at 5 µg/mL: 18 mm
[9]
  zone of inhibition at 100 µg/mL: 21 mm
Escherichia coli W-MB-60
  disc zone size: 18 mm
[10]
  disc zone size: 27 mm

## CO[C@@]1(NC(=O)CCC[C@@H](N)C(=O)O)C(=O)N2C(C(=O)O)=C(COC(N)=O)CS[C@@H]21 [Example 842A]
[2]
  antibacterial activity: exhibits activity against Salmonella schottmuelleri 3010, S. gallinarum and S. typhosa
  bactericidal action / development of resistance: resistance to it develops slowly and it is bactericidal
[2]; listed as Antibiotic 842A
  antibacterial activity: inhibits the growth of the following gram-negative bacteria: Escherichia coli, Proteus vulgaris, Alcaligenes faecalis, Brucella bronchiseptica, Salmonella gallinarum, Vibrio percolans and Xanthomonas vesicatoria; also recorded: inhibits the growth of the following gram-positive bacteria: Staphylococcus aureus, Sarcina lutea and Bacillus subtilis; also recorded: enhanced activity against gram-negative microorganisms
[11]
  stability, high pH: unstable above pH 7
  stability, low pH: stable at pH 1.5
[11]; listed as Antibiotic 842A
  stability, high pH: unstable above pH 9.0
  stability, low pH: relatively stable at pH 1.5
Proteus morganii 356 [7]; bacterial cells, 4 h
  percent inactivation: 69%
Escherichia coli 236
  percent inactivation: 38%
Proteus mirabilis 241; bacterial cells, 4 h
  percent inactivation: 5%
Proteus morganii 251; bacterial cells, 4 h
  percent inactivation: 80%
Certain microorganisms
  resistance to inactivation / enzymatic degradation: more resistant to enzymatic degradation than cephalosporin C
Certain microorganisms; listed as Antibiotic 842A
  resistance to inactivation / enzymatic degradation: more stable than the latter against certain microorganisms; also recorded: more resistant than cephalosporin C to inactivation by A. faecalis, A. viscosus, Escherichia coli 236, Proteus morganii 251, Proteus morganii 236 and Proteus mirabilis 241
[8]; 4 Hour Incubation, assayed on B. subtilis (MB-964) plates
  Percent Inactivation After Incubation With Washed Bacterial Cells: 0%
[3]
  protection against infections, oral: protects against infections due to Paracolobactrum arizoniae 3270, Proteus vulgaris 1810, and Salmonella schottmuelleri 3010
[3]; listed as Antibiotic 842A
  in vivo protection / activity: protects against infection with three species of Proteus, two of Salmonella, one strain of Escherichia coli, two of Klebsiella and also against Paracolobactrum arizoniae, Aerobacter aerogenes, Pasteurella multocida and Diplococcus pneumoniae E400; also recorded: exhibits a significant in vivo gram-negative effect with a potency which, in general, is greater than cephalothin
[12]; in vivo
  blood levels / excretion: produces rapid blood levels; also recorded: rapidly excreted in the urine
[12]; urine, within six hours after administration, read-out: eliminated in the urine
  dose excreted at 6 h: ~100%

## CC1(C)S[C@@H]2[C@H](NC(=O)Cc3ccccc3)C(=O)N2[C@H]1C(=O)O [Penicillin G]
penicillinase
  resistance to / degradation by penicillinase: in the presence of penicillinase it is degraded to a form which is ineffective against most pathogens
